Reference: patent publication US6518243B1, “Desleucyl glycopeptide antibiotics and methods of making same” (Trustees of Princeton University, priority 1999, dated 2003)

Key:
Experiment in all cases: Zone of inhibition screen, 96 well agar array format
Format in all cases: cell-based
Design in all cases: scale not given here
[1] = system: E. faecalis (CL 4877)
In short: (§1)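 Panel screening of every compound against several bacterial strains, among them E. faecium ATCC 49624, was done in a 96-well agar array.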

[2] = system: S. aureus (ATCC 29213)
In short: as §1

[3] = system: S. epidermidis (ATCC 12228)
In short: as §1

[4] = zone of inhibition relative to 1 mg/ml stock solution of p-chlorobiphenylvancomycin
[5] = zone of inhibition relative to 1 mg/ml p-chlorobiphenylvancomycin

CC(=O)OC(CC(=O)NC1C(=O)NC(CC(N)=O)C(=O)NC2C(=O)NC3C(=O)NC(C(=O)NC(C(=O)O)c4cc(O)cc(O)c4-c4cc3ccc4O)C(O)c3ccc(c(Cl)c3)Oc3cc2cc(c3OC2OC(CO)C(O)C(O)C2OC2CC(C)(NCc3ccc(-c4ccc(Cl)cc4)cc3)C(O)C(C)O2)Oc2ccc(cc2Cl)C1O)C[N+](C)(C)C (stereo not drawn) [Compound 119]
2: zone score, E. faecalis CL 4877 [1, 4] | zone score, S. aureus ATCC 29213 [2, 4] | zone score, S. epidermidis ATCC 12228 [3, 4]

CC(=O)NCC(=O)NCC(=O)NC1C(=O)NC(CC(N)=O)C(=O)NC2C(=O)NC3C(=O)NC(C(=O)NC(C(=O)O)c4cc(O)cc(O)c4-c4cc3ccc4O)C(O)c3ccc(c(Cl)c3)Oc3cc2cc(c3OC2OC(CO)C(O)C(O)C2OC2CC(C)(NCc3ccc(-c4ccc(Cl)cc4)cc3)C(O)C(C)O2)Oc2ccc(cc2Cl)C1O (stereo not drawn) [Compound 120]
2: zone score, E. faecalis CL 4877 [1, 4] | zone score, S. aureus ATCC 29213 [2, 4] | zone score, S. epidermidis ATCC 12228 [3, 4]

CC1OC(OC2C(Oc3c4cc5cc3Oc3ccc(cc3Cl)C(O)C3NC(=O)C(NC(=O)C5NC(=O)C(CC(N)=O)NC(=O)C(NC(=O)CO)C(O)c5ccc(c(Cl)c5)O4)c4ccc(O)c(c4)-c4c(O)cc(O)cc4C(C(=O)O)NC3=O)OC(CO)C(O)C2O)CC(C)(NCc2ccc(-c3ccc(Cl)cc3)cc2)C1O (stereo not drawn) [Compound 158]
2: zone score, E. faecalis CL 4877 [1, 4] | zone score, S. aureus ATCC 29213 [2, 4] | zone score, S. epidermidis ATCC 12228 [3, 4]

CC(=O)N[C@@H](Cc1c[nH]cn1)C(=O)N[C@H]1C(=O)N[C@@H](CC(N)=O)C(=O)N[C@H]2C(=O)NC3C(=O)N[C@H](C(=O)N[C@@H](C(=O)O)c4cc(O)cc(O)c4-c4cc3ccc4O)[C@H](O)c3ccc(c(Cl)c3)Oc3cc2cc(c3OC2OC(CO)C(O)C(O)C2OC2CC(C)(NCc3ccc(-c4ccc(Cl)cc4)cc3)C(O)C(C)O2)Oc2ccc(cc2Cl)[C@H]1O (stereo partly drawn) [Compound 181]
2: zone score, E. faecalis CL 4877 [1, 4] | zone score, S. aureus ATCC 29213 [2, 4] | zone score, S. epidermidis ATCC 12228 [3, 4]

CC(=O)N1CCC[C@H]1C(=O)N[C@H]1C(=O)N[C@@H](CC(N)=O)C(=O)N[C@H]2C(=O)NC3C(=O)N[C@H](C(=O)N[C@@H](C(=O)O)c4cc(O)cc(O)c4-c4cc3ccc4O)[C@H](O)c3ccc(c(Cl)c3)Oc3cc2cc(c3OC2OC(CO)C(O)C(O)C2OC2CC(C)(NCc3ccc(-c4ccc(Cl)cc4)cc3)C(O)C(C)O2)Oc2ccc(cc2Cl)[C@H]1O (stereo partly drawn) [Compound 183]
2: zone score, E. faecalis CL 4877 [1, 4] | zone score, S. aureus ATCC 29213 [2, 4] | zone score, S. epidermidis ATCC 12228 [3, 4]

CC1OC(OC2C(Oc3c4cc5cc3Oc3ccc(cc3Cl)C(O)C3NC(=O)C(NC(=O)C5NC(=O)C(CC(N)=O)NC(=O)C(NC(=O)C(Cc5c[nH]cn5)NC=O)C(O)c5ccc(c(Cl)c5)O4)c4ccc(O)c(c4)-c4c(O)cc(O)cc4C(C(=O)O)NC3=O)OC(CO)C(O)C2O)CC(C)(NCc2ccc(-c3ccc(Cl)cc3)cc2)C1O (stereo not drawn) [Compound 195]
2: zone score, E. faecalis CL 4877 [1, 4] | zone score, S. aureus ATCC 29213 [2, 4] | zone score, S. epidermidis ATCC 12228 [3, 4]

CC1OC(OC2C(Oc3c4cc5cc3Oc3ccc(cc3Cl)C(O)C3NC(=O)C(NC(=O)C5NC(=O)C(CC(N)=O)NC(=O)C(NC(=O)CCC(N)=O)C(O)c5ccc(c(Cl)c5)O4)c4ccc(O)c(c4)-c4c(O)cc(O)cc4C(C(=O)O)NC3=O)OC(CO)C(O)C2O)CC(C)(NCc2ccc(-c3ccc(Cl)cc3)cc2)C1O (stereo not drawn) [Compound 202]
2: zone score, E. faecalis CL 4877 [1, 4] | zone score, S. aureus ATCC 29213 [2, 4] | zone score, S. epidermidis ATCC 12228 [3, 4]

CC(NC(=O)OCc1ccccc1)C(=O)NCC(=O)NCC(=O)NC1C(=O)NC(CC(N)=O)C(=O)NC2C(=O)NC3C(=O)NC(C(=O)NC(C(=O)O)c4cc(O)cc(O)c4-c4cc3ccc4O)C(O)c3ccc(c(Cl)c3)Oc3cc2cc(c3OC2OC(CO)C(O)C(O)C2OC2CC(C)(NCc3ccc(-c4ccc(Cl)cc4)cc3)C(O)C(C)O2)Oc2ccc(cc2Cl)C1O (stereo not drawn) [Compound 209]
2: zone score, E. faecalis CL 4877 [1, 5] | zone score, S. aureus ATCC 29213 [2, 5] | zone score, S. epidermidis ATCC 12228 [3, 5]

CC1OC(OC2C(Oc3c4cc5cc3Oc3ccc(cc3Cl)C(O)C3NC(=O)C(NC(=O)C5NC(=O)C(CC(N)=O)NC(=O)C(NC(=O)CNC(=O)CNC(=O)CCNC(=O)OCc5ccccc5)C(O)c5ccc(c(Cl)c5)O4)c4ccc(O)c(c4)-c4c(O)cc(O)cc4C(C(=O)O)NC3=O)OC(CO)C(O)C2O)CC(C)(NCc2ccc(-c3ccc(Cl)cc3)cc2)C1O (stereo not drawn) [Compound 210]
2: zone score, E. faecalis CL 4877 [1, 5] | zone score, S. aureus ATCC 29213 [2, 5] | zone score, S. epidermidis ATCC 12228 [3, 5]

CC1OC(OC2C(Oc3c4cc5cc3Oc3ccc(cc3Cl)C(O)C3NC(=O)C(NC(=O)C5NC(=O)C(CC(N)=O)NC(=O)C(NC(=O)CNC(=O)C(CCC(N)=O)NC(=O)OCc5ccccc5)C(O)c5ccc(c(Cl)c5)O4)c4ccc(O)c(c4)-c4c(O)cc(O)cc4C(C(=O)O)NC3=O)OC(CO)C(O)C2O)CC(C)(NCc2ccc(-c3ccc(Cl)cc3)cc2)C1O (stereo not drawn) [Compound 211]
2: zone score, E. faecalis CL 4877 [1, 5] | zone score, S. aureus ATCC 29213 [2, 5] | zone score, S. epidermidis ATCC 12228 [3, 5]

CC1OC(OC2C(Oc3c4cc5cc3Oc3ccc(cc3Cl)C(O)C3NC(=O)C(NC(=O)C5NC(=O)C(CC(N)=O)NC(=O)C(NC(=O)C(CCC(N)=O)NC(=O)CNC(=O)OCc5ccccc5)C(O)c5ccc(c(Cl)c5)O4)c4ccc(O)c(c4)-c4c(O)cc(O)cc4C(C(=O)O)NC3=O)OC(CO)C(O)C2O)CC(C)(NCc2ccc(-c3ccc(Cl)cc3)cc2)C1O (stereo not drawn) [Compound 212]
2: zone score, E. faecalis CL 4877 [1, 5] | zone score, S. aureus ATCC 29213 [2, 5] | zone score, S. epidermidis ATCC 12228 [3, 5]
